Measured values reported in patent US20050084456A1, “Functionalized particles” (priority 2003, published 2005).

Assay: Distribution of intravenously administered FITC-labeled NIPA nanoparticles in uveal tissue
Conditions: 12 hours after intravenous administration; FIG. 3

## fluorescein-isothiocyanate [FITC]
  presence / accumulation in uveal tissue: no accumulation
